{"source": "ChEMBL document CHEMBL1201862", "about": "“PubChem BioAssay data set” (2004)", "assay_in_all_cases": "NCI-60 cell line screen, 48 h", "key": {"[1]": {"tested_on": "K562"}, "[2]": {"tested_on": "Hs-578T"}, "[3]": {"tested_on": "MDA-MB-435"}, "[4]": {"tested_on": "MDA-MB-231"}, "[5]": {"tested_on": "BT-549"}, "[6]": {"tested_on": "SK-OV-3"}, "[7]": {"tested_on": "SNB-75"}, "[8]": {"tested_on": "OVCAR-4"}, "[9]": {"tested_on": "SF-539"}, "[10]": {"tested_on": "EKVX"}, "[11]": {"tested_on": "HOP-62"}, "[12]": {"tested_on": "IGROV-1"}, "[13]": {"tested_on": "HCT-116"}, "[14]": {"tested_on": "COLO 205"}, "[15]": {"tested_on": "UACC-62"}, "[16]": {"tested_on": "SF-295"}, "[17]": {"tested_on": "PC-3"}, "[18]": {"tested_on": "U-251"}, "[19]": {"tested_on": "NCI-H522"}, "[20]": {"tested_on": "NCI/ADR-RES"}}, "note": "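Following 48 hours of exposure in 96-well plates, responses at five concentrations were used to interpolate endpoints linearly. The concentration for 50% growth inhibition is given as GI50.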 The source made the active and inactive calls. Cut-off read from the data, not from the text of the source: active = GI50 up to about 1.1 µM and inactive = higher.", "data": [{"compound": "CSc1ccc(NC(=O)Nc2cc(C)ccn2)cc1", "values": [{"measurement": "GI50", "setting": "[1]", "result": "> 100 µM (inactive)"}, {"measurement": "GI50", "setting": "[2]", "result": "> 100 µM (inactive)"}, {"measurement": "GI50", "setting": "[3]", "result": "> 100 µM (inactive)"}, {"measurement": "GI50", "setting": "[4]", "result": "> 100 µM (inactive)"}, {"measurement": "GI50", "setting": "[5]", "result": "> 100 µM (inactive)"}, {"measurement": "GI50", "setting": "[6]", "result": "> 100 µM (inactive)"}, {"measurement": "GI50", "setting": "[7]", "result": "> 100 µM (inactive)"}, {"measurement": "GI50", "setting": "[8]", "result": "> 100 µM (inactive)"}, {"measurement": "GI50", "setting": "[9]", "result": "2.36 µM (inactive)"}, {"measurement": "GI50", "setting": "[10]", "result": "> 100 µM (inactive)"}, {"measurement": "GI50", "setting": "[11]", "result": "> 100 µM (inactive)"}, {"measurement": "GI50", "setting": "[12]", "result": "> 100 µM (inactive)"}, {"measurement": "GI50", "setting": "[13]", "result": "> 100 µM (inactive)"}, {"measurement": "GI50", "setting": "[14]", "result": "> 100 µM (inactive)"}, {"measurement": "GI50", "setting": "[15]", "result": "> 100 µM (inactive)"}, {"measurement": "GI50", "setting": "[16]", "result": "> 100 µM (inactive)"}, {"measurement": "GI50", "setting": "[17]", "result": "> 100 µM (inactive)"}, {"measurement": "GI50", "setting": "[18]", "result": "> 100 µM (inactive)"}, {"measurement": "GI50", "setting": "[19]", "result": "> 100 µM (inactive)"}, {"measurement": "GI50", "setting": "[20]", "result": "> 100 µM (inactive)"}]}, {"compound": "COc1cc2cc(C(=O)N3CC(CCl)c4ccccc43)[nH]c2c(OC)c1OC", "note": "(stereo not given)", "values": [{"measurement": "GI50", "setting": "[1]", "result": "3.1 µM (inactive)"}, {"measurement": "GI50", "setting": "[2]", "result": "> 100 µM (inactive)"}, {"measurement": "GI50", "setting": "[3]", "result": "19.2 µM (inactive)"}, {"measurement": "GI50", "setting": "[4]", "result": "> 100 µM (inactive)"}, {"measurement": "GI50", "setting": "[5]", "result": "28.6 µM (inactive)"}, {"measurement": "GI50", "setting": "[6]", "result": "> 100 µM (inactive)"}, {"measurement": "GI50", "setting": "[7]", "result": "> 92.5 µM (inactive)"}, {"measurement": "GI50", "setting": "[8]", "result": "> 94.4 µM (inactive)"}, {"measurement": "GI50", "setting": "[9]", "result": "> 100 µM (inactive)"}, {"measurement": "GI50", "setting": "[10]", "result": "> 66.1 µM (inactive)"}, {"measurement": "GI50", "setting": "[11]", "result": "> 56.2 µM (inactive)"}, {"measurement": "GI50", "setting": "[12]", "result": "> 100 µM (inactive)"}, {"measurement": "GI50", "setting": "[13]", "result": "67.9 µM (inactive)"}, {"measurement": "GI50", "setting": "[14]", "result": "33.8 µM (inactive)"}, {"measurement": "GI50", "setting": "[15]", "result": "55.5 µM (inactive)"}, {"measurement": "GI50", "setting": "[16]", "result": "70.3 µM (inactive)"}, {"measurement": "GI50", "setting": "[17]", "result": "21.9 µM (inactive)"}, {"measurement": "GI50", "setting": "[18]", "result": "> 69.2 µM (inactive)"}, {"measurement": "GI50", "setting": "[19]", "result": "17.2 µM (inactive)"}, {"measurement": "GI50", "setting": "[20]", "result": "34.8 µM (inactive)"}]}, {"compound": "Cc1ccc(C(=O)O)cc1S(=O)(=O)Nn1cnc2ccc(S(=O)(=O)Nc3ccccc3C(=O)O)cc2c1=O", "values": [{"measurement": "GI50", "setting": "[1]", "result": "1.78 µM (inactive)"}, {"measurement": "GI50", "setting": "[2]", "result": "> 100 µM (inactive)"}, {"measurement": "GI50", "setting": "[3]", "result": "> 100 µM (inactive)"}, {"measurement": "GI50", "setting": "[4]", "result": "> 100 µM (inactive)"}, {"measurement": "GI50", "setting": "[5]", "result": "> 100 µM (inactive)"}, {"measurement": "GI50", "setting": "[6]", "result": "> 100 µM (inactive)"}, {"measurement": "GI50", "setting": "[7]", "result": "> 100 µM (inactive)"}, {"measurement": "GI50", "setting": "[8]", "result": "> 100 µM (inactive)"}, {"measurement": "GI50", "setting": "[9]", "result": "> 100 µM (inactive)"}, {"measurement": "GI50", "setting": "[10]", "result": "> 100 µM (inactive)"}, {"measurement": "GI50", "setting": "[11]", "result": "> 100 µM (inactive)"}, {"measurement": "GI50", "setting": "[12]", "result": "60.7 µM (inactive)"}, {"measurement": "GI50", "setting": "[13]", "result": "46.1 µM (inactive)"}, {"measurement": "GI50", "setting": "[14]", "result": "31.6 µM (inactive)"}, {"measurement": "GI50", "setting": "[15]", "result": "8.93 µM (inactive)"}, {"measurement": "GI50", "setting": "[16]", "result": "26.1 µM (inactive)"}, {"measurement": "GI50", "setting": "[17]", "result": "16.6 µM (inactive)"}, {"measurement": "GI50", "setting": "[18]", "result": "> 100 µM (inactive)"}, {"measurement": "GI50", "setting": "[19]", "result": "> 100 µM (inactive)"}, {"measurement": "GI50", "setting": "[20]", "result": "> 100 µM (inactive)"}]}, {"compound": "COc1ccccc1/C=C/c1nc2ccccc2o1", "values": [{"measurement": "GI50", "setting": "[1]", "result": "> 10 µM (inactive)"}, {"measurement": "GI50", "setting": "[2]", "result": "> 10 µM (inactive)"}, {"measurement": "GI50", "setting": "[3]", "result": "> 10 µM (inactive)"}, {"measurement": "GI50", "setting": "[4]", "result": "> 10 µM (inactive)"}, {"measurement": "GI50", "setting": "[5]", "result": "> 10 µM (inactive)"}, {"measurement": "GI50", "setting": "[6]", "result": "> 10 µM (inactive)"}, {"measurement": "GI50", "setting": "[7]", "result": "> 10 µM (inactive)"}, {"measurement": "GI50", "setting": "[8]", "result": "> 10 µM (inactive)"}, {"measurement": "GI50", "setting": "[9]", "result": "> 10 µM (inactive)"}, {"measurement": "GI50", "setting": "[10]", "result": "> 10 µM (inactive)"}, {"measurement": "GI50", "setting": "[11]", "result": "> 10 µM (inactive)"}, {"measurement": "GI50", "setting": "[12]", "result": "> 10 µM (inactive)"}, {"measurement": "GI50", "setting": "[13]", "result": "> 10 µM (inactive)"}, {"measurement": "GI50", "setting": "[14]", "result": "> 10 µM (inactive)"}, {"measurement": "GI50", "setting": "[15]", "result": "> 10 µM (inactive)"}, {"measurement": "GI50", "setting": "[16]", "result": "> 10 µM (inactive)"}, {"measurement": "GI50", "setting": "[17]", "result": "> 10 µM (inactive)"}, {"measurement": "GI50", "setting": "[18]", "result": "> 10 µM (inactive)"}, {"measurement": "GI50", "setting": "[19]", "result": "> 10 µM (inactive)"}, {"measurement": "GI50", "setting": "[20]", "result": "> 10 µM (inactive)"}]}, {"compound": "Cc1cccc2c1NC(=O)/C2=N\\Nc1ccccc1[N+](=O)[O-]", "values": [{"measurement": "GI50", "setting": "[1]", "result": "17.5 µM (inactive)"}, {"measurement": "GI50", "setting": "[2]", "result": "4.85 µM (inactive)"}, {"measurement": "GI50", "setting": "[3]", "result": "22.6 µM (inactive)"}, {"measurement": "GI50", "setting": "[4]", "result": "2.58 µM (inactive)"}, {"measurement": "GI50", "setting": "[5]", "result": "20.4 µM (inactive)"}, {"measurement": "GI50", "setting": "[6]", "result": "4.34 µM (inactive)"}, {"measurement": "GI50", "setting": "[7]", "result": "11.1 µM (inactive)"}, {"measurement": "GI50", "setting": "[8]", "result": "4.05 µM (inactive)"}, {"measurement": "GI50", "setting": "[9]", "result": "2.12 µM (inactive)"}, {"measurement": "GI50", "setting": "[10]", "result": "1.58 µM (inactive)"}, {"measurement": "GI50", "setting": "[11]", "result": "3.52 µM (inactive)"}, {"measurement": "GI50", "setting": "[12]", "result": "2.37 µM (inactive)"}, {"measurement": "GI50", "setting": "[13]", "result": "6.82 µM (inactive)"}, {"measurement": "GI50", "setting": "[14]", "result": "30.4 µM (inactive)"}, {"measurement": "GI50", "setting": "[15]", "result": "14.5 µM (inactive)"}, {"measurement": "GI50", "setting": "[16]", "result": "4.24 µM (inactive)"}, {"measurement": "GI50", "setting": "[17]", "result": "10.9 µM (inactive)"}, {"measurement": "GI50", "setting": "[18]", "result": "2.37 µM (inactive)"}, {"measurement": "GI50", "setting": "[19]", "result": "0.871 µM (active)"}, {"measurement": "GI50", "setting": "[20]", "result": "4.74 µM (inactive)"}]}, {"compound": "C[C@]12C=CC(=O)C=C1CC[C@@H]1[C@@H]2C(=O)C[C@@]2(C)[C@H]1CC[C@]2(O)C(=O)CO", "note": "[PREDNISONE]", "values": [{"measurement": "GI50", "setting": "[1]", "result": "> 100 µM (inactive)"}, {"measurement": "GI50", "setting": "[2]", "result": "> 100 µM (inactive)"}, {"measurement": "GI50", "setting": "[3]", "result": "> 100 µM (inactive)"}, {"measurement": "GI50", "setting": "[4]", "result": "> 100 µM (inactive)"}, {"measurement": "GI50", "setting": "[5]", "result": "> 100 µM (inactive)"}, {"measurement": "GI50", "setting": "[6]", "result": "> 100 µM (inactive)"}, {"measurement": "GI50", "setting": "[7]", "result": "> 100 µM (inactive)"}, {"measurement": "GI50", "setting": "[8]", "result": "> 100 µM (inactive)"}, {"measurement": "GI50", "setting": "[9]", "result": "> 100 µM (inactive)"}, {"measurement": "GI50", "setting": "[10]", "result": "> 100 µM (inactive)"}, {"measurement": "GI50", "setting": "[11]", "result": "> 100 µM (inactive)"}, {"measurement": "GI50", "setting": "[12]", "result": "> 100 µM (inactive)"}, {"measurement": "GI50", "setting": "[13]", "result": "59.8 µM (inactive)"}, {"measurement": "GI50", "setting": "[14]", "result": "> 100 µM (inactive)"}, {"measurement": "GI50", "setting": "[15]", "result": "> 100 µM (inactive)"}, {"measurement": "GI50", "setting": "[16]", "result": "> 100 µM (inactive)"}, {"measurement": "GI50", "setting": "[17]", "result": "> 100 µM (inactive)"}, {"measurement": "GI50", "setting": "[18]", "result": "> 100 µM (inactive)"}, {"measurement": "GI50", "setting": "[19]", "result": "> 100 µM (inactive)"}, {"measurement": "GI50", "setting": "[20]", "result": "> 100 µM (inactive)"}]}]}
